Laboratory results published in paper PMC10762078, “Role of UPF1-LIN28A interaction during early differentiation of pluripotent stem cells” (Nature Communications, 2024).
Each block holds one molecule with its values, some of them ahead of it. Ends that are not written are not given here.

Legend:
[1] = tested on: CHA15 cells transcriptome / NMD targets; assay: RNA-seq of CPP-peptide-treated CHA15 cells (NMD targets, SDGs; Fig. 6a, b, d; Supplementary Fig. 6a; Supplementary Data 2); format: cell-based, Homo sapiens; details: CHA15, P2 vs P1 plot (Fig. 6d)
Procedure: For CPP-conjugated peptide delivery, HeLa, 293T, and PA-1 cells were incubated with CPP-conjugated peptides or CPP-FITC at 2 μM in DMEM with 10% FBS for 12 h a day before cell harvest. hPSCs were treated with CPP-conjugated peptides at 10 μM in mTeSR Plus Medium, […] The ROCK inhibitor (Tocris Bioscience, Y-27632) treated-hPSCs were dissociated into single cells using Accutase (Merck, SCR005) and differentiated into ectoderm, mesoderm, and endoderm using the STEMdiff Trilineage Differentiation Kit ([…] Technologies, 05230) following the manufacturer’s protocol. Differentiated cells treated with CPP-conjugated peptides were analysed at 0, 3, and 5 days for ectoderm and endoderm, and at 0, 3, and 4 days for mesoderm.
Total RNA concentration was calculated using Quant-IT RiboGreen (Invitrogen, R11490). To assess the integrity of the total RNA, samples were run on a TapeStation RNA screentape (Agilent). Only high-quality RNA preparations with RNA integrity number greater than 7.0 were used for the RNA library construction. A library was independently prepared with 1 μg of total RNA from each sample using the Illumina TruSeq Stranded mRNA Sample Prep Kit (Illumina, 20020594). The first step in the workflow involves purifying poly‐A-containing mRNA molecules using poly‐T‐attached magnetic beads. Following purification, mRNA was fragmented into small pieces using divalent cations at elevated temperatures. The cleaved RNA fragments were copied into first-strand cDNA using SuperScript II reverse transcriptase (Invitrogen, 18064022) and random primers. This was followed by second-strand cDNA synthesis using DNA polymerase I, RNase H, and dUTP. These cDNA fragments underwent an end repair process, adding a single ‘A’ base and ligating the adapters. The products were purified and enriched via PCR to create the final cDNA library. The libraries were quantified using the KAPA Library Quantification Kits for Illumina Sequencing platforms according to the qPCR Quantification Protocol Guide (KAPA BIOSYSTEMS, KR0405) and qualified using the TapeStation D1000 ScreenTape (Agilent). Indexed libraries were then submitted to an Illumina NovaSeq (Illumina), and Macrogen Inc. performed paired-end (2 × 100 bp) sequencing.
We pre-processed the raw reads from the sequencer to remove low-quality reads and adapter sequences before analysis and aligned the processed reads to Homo sapiens (GRCh37) using HISAT v2.1.0[52]. HISAT utilises two indices for alignment (a global whole-genome index and tens of thousands of small local indexes). These two types of indices are constructed using the same Burrows-Wheeler transform (BWT)/graph FM index (GFM) as Bowtie2. The reference genome sequence of Homo sapiens (GRCh37) and the annotation data were downloaded from the NCBI database. Transcript assembly was processed using StringTie v1.3.4d[53],[54]. […] Differentially expressed genes (DEGs) were analysed by ratio of FPKM or using DESeq2 with read counts. Log2 fold-change value of the NMD targets[25],[32], three germ layer markers, miRNA targets, or SDGs was converted into cumulative frequency curve using the R function, ‘ecdf’ (version 4.0.5). Gene functional classification and Gene ontology (GO) were performed using g:Profiler[56].

[2] = tested on: let-7a, let-7g, miR-16-5p and their targets in CHA15 cells; assay: RT-qPCR of mature LIN28A-regulated miRNAs and CDF of let-7-5p / miR-16-5p target mRNAs (Supplementary Fig. 6f); format: cell-based, human; details: Fig. s6f, cumulative curves; P2/P1; Asymptotic two-sample Kolmogorov-Smirnov test, two-sided
Procedure: cDNA was synthesised using RevertAid Reverse Transcriptase (Thermo Fisher Scientific, EP0441) with synthesised random hexamer (Macrogen) for total RNA or stem-loop primers for miRNA. For RT-qPCR reactions, the SensiFAST SYBR No-ROX kit (Meridian Bioscience) was used according to the manufacturer’s protocol. All data analysis and visualisation were conducted using R 3.6.1 [www.r-project.org] or GraphPad Prism 10. RT primers for miRNA and RT-qPCR primer sequences are provided in Supplementary Data 6.
Genes regulated by miRNA let-7-5p and miR-16-5p were determined by TargetScanHuman. Among miRNA targets sorted by cumulative weighted context++ score (CWCS)[57], the 100 top genes were selected and analysed using CDF. […]
Scatter
(bottom panel), respectively. f Levels of m ature endogenous m iRNAs in CHA15 cells, which were regulated by LIN28A, were assessed using RT -qPCR. Cum ulative f raction of log2 fold change in the expression of genes regulated by let-7-5p and m iR-16- 5p was shown as CDF graphs. T he relative level of m RNA was norm alised to that of U6 snRNA in (c, d, and f). K–S tests were used for e and f. Unpaired Student’s t-test was used for c , d, and f . * p < 0.05, ** p < 0.01, *** p < 0.001. Exact p -values were provided in Source data. Data are presented as m ean values ± SEM. All statistical test used were two- sided. T he m inim um num ber of independent biological replicate experim ents was a and e n = 2, b–d and f n = 3. T he experim ents were conducted three tim es, each iteration producing consistent results.

[3] = tested on: HeLa, PA-1 and CHA15 cells; assay: Cell-penetrating efficiency of CPP-FITC by confocal microscopy; format: cell-based; details: PA-1, CHA15
Procedure: For CPP-conjugated peptide delivery, HeLa, 293T, and PA-1 cells were incubated with CPP-conjugated peptides or CPP-FITC at 2 μM in DMEM with 10% FBS for 12 h a day before cell harvest. hPSCs were treated with CPP-conjugated peptides at 10 μM in mTeSR Plus Medium, and the peptide-containing medium was changed every day over 10 days. The ROCK inhibitor (Tocris Bioscience, Y-27632) treated-hPSCs were dissociated into single cells using Accutase (Merck, SCR005) and differentiated into ectoderm, mesoderm, and endoderm using the STEMdiff Trilineage Differentiation Kit ([…] Technologies, 05230) following the manufacturer’s protocol. Differentiated cells treated with CPP-conjugated peptides were analysed at 0, 3, and 5 days for ectoderm and endoderm, and at 0, 3, and 4 days for mesoderm.
Immunofluorescence staining, proximity ligation assay imaging, and cell-penetrating efficiency of CPP-FITC were imaged with a confocal laser scanning microscope (Leica, TSC SP5) or immunofluorescence microscope (Leica, DM5000B). Z-stacks were captured, with sections spanning the entire cell. The LAS X Life Science program was used to obtain the maximum intensity projections and cross-sections of the confocal images.
DAPI FITC Merge DAPI FITC Merge CHA15 H9 Pro2 H9
No peptide CPP-FITC Calnexin
For 2-day treatm ent For 4-day treatm ent […]
Supplementary Fig. 5 a HeLa, PA- 1, and CHA15 wer e treated with CPP-FITC. […]

His-LIN28A [4] = biological target: T1, His-LIN28A (Homo sapiens, UniProt Q9H9Z2); assay: SPR analyte-ligand binding screening of eight peptides (P1-P8); details: SPR screening at 15 μM, 3 min association, 6 min dissociation
T1 construct: purchased LS-bio LS-G637
T1 sequence (Q9H9Z2 1-209): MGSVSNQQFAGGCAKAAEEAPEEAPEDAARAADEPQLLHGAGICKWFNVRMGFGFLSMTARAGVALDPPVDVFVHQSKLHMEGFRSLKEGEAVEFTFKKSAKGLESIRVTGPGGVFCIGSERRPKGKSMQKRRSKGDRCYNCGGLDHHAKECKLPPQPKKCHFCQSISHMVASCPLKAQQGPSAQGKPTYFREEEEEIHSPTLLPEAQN
Procedure: For ligand immobilisation, the nitrilotriacetic acid (NTA) surface gold sensor chip (icluebio) was activated with 5 mM NiCl2 (Xantec) at a flow rate of 30 μL/min, following equalisation with 1× HBS-T buffer. His-LIN28A (LS-bio, LS-G637) was used as a ligand protein and was applied to a sensor chip at a flow rate of 10 μL/min for 40 min after dilution in 1× HEPES-buffered saline (HBS-T) buffer at a 1/20 ratio. Approximately 1000 resonance units (RU) were bonded to the sensor chip after ligand immobilisation. RU was measured using iMSPR-ProX (icluebio). An indigenous NTA sensor chip was used as a reference channel.
Analyte-ligand binding screening was performed by tethering the ligand and reference channels in the connected mode. […] After equalisation with 1× HBS-T buffer, the sensor chip was treated with each peptide for 3 min and then for 6 min with 1× HBS-T buffer for peptide dissociation.

His-LIN28A [5] = biological target: T2, His-LIN28A (UniProt Q9H9Z2 1-209); assay: SPR
T2 chain: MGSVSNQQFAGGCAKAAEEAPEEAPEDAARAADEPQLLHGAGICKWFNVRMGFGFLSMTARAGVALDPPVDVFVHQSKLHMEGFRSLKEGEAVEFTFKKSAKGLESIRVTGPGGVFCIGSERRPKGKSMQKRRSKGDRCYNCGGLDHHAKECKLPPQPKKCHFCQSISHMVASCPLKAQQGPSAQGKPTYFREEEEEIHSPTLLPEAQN

His-LIN28A [6] = biological target: T2, His-LIN28A; assay: SPR

Molecule: KKKWCRKKKMPELQKLQQLKDE [CPP-P2, CPP conjugated to P2; negative control, reference compound]
- ACADL expression (dot plot) [1]: -0.6893
- AOC1 expression (dot plot) [1]: -1.502
- BLOC1S5-TXNDC5 expression (dot plot) [1]: -0.1425
- TRIM39-RPP21 expression (dot plot) [1]: 0.7164
- let-7-5p targets, log2FC cumulative curve: Kolmogorov-Smirnov D [2]: 0.07965
- miR-16-5p targets, log2FC cumulative curve: Kolmogorov-Smirnov D [2]: 0.2271

Molecule: CPP-FITC: CPP conjugated to FITC, used to evaluate cell-penetrating ability in cells (KKKWCRKKK; also: FITC conjugate)
- intracellular distribution [3]: distribution of CPP-FITC in the cytoplasm

- binding affinity vs others (His-LIN28A [4]): slightly
Molecule: N-STSFDRMQSALKTFAVD-C [P4, peptide derived from the UPF1 (419–700) domain]

- koff (His-LIN28A [5]): 0.0137 s⁻¹
- Kd (His-LIN28A [6]): 5.2 µM
Molecule: SSADEKRYRALKRTAERELLMNA [P8]
